“Also recorded” adds a separate entry of the source.
How the values were obtained:
[1] = Example 6.2: body weight of LXFE 397 tumor-bearing mice; assay type: in vivo, NMRI nu/nu mice; details: FIG. 16
Experimental: The application volume was 20 ml/kg mouse body weight for saline and Voluven® 10% (i.v.) and 100 mg/kg for Capecitabine (p.o.).

[2] = Example 6.1: body weight of LXFL 529 tumor-bearing mice; assay type: in vivo, NMRI nu/nu mice; details: FIG. 14
Experimental: The application volume was 20 ml/kg mouse body weight for saline and Voluven® 10% and 10 ml/kg of the 1 mg/ml solution for Everolimus (administered final dose 10 mg/kg). The route of administration was by i.v. injection into the tail vein for saline and Voluven® 10%. 10 mg/kg of body weight Everolimus was administered p.o.

[3] = system: human prostate carcinoma cell line PC-3; assay: Example 4: PC-3 xenograft tumor growth in nude mice; assay type: in vivo; details: 3 week observation period; FIG. 5
Experimental: In another study which was performed in analogy to the study described above, the effect of “Voluven 10%” was tested on a different cancer cell line, i.e. on prostate cancer cell line PC3.
The rapidly growing human prostate carcinoma cell line PC-3 was used as xenograft tumor model in nude mice to test the efficacy of Voluven® 10% on reduction of tumour growth rates. Paclitaxel was employed as positive control and saline as negative control.
• Strain: NMRI nude (homozygous)-Rj:NMRI-nu • Sex: Female • Supplier: Elevage Janvier, Route des Chènes Secs, 53940 Le Genest St. Isle, France • Health status: SPF • Age at delivery: 5-6 weeks • Acclimatization: At least 6 days […]
Tumor measurement: The tumor growth was measured three times a week (e.g. Monday, Wednesday, and Friday) beginning with study day 3 (tumor measurable at size approx. 3 mm in diameter). Tumor volumes were calculated according to V=(length×(width)^2)/2. […]
To prepare the paclitaxel solution at a concentration of 2.5 mg/ml the paclitaxel stock solution (6 mg/ml) was diluted with 0.9% isotonic saline. […] Saline and Voluven® 10% were provided as ready-to-use formulations. […]
Statistical analyses of data were performed for each group separately. Group medians were calculated for body weights and tumor measurements for each investigation time. […] For the evaluation of tumor volume/area and T/C values were calculated using Microsoft Excel 7.0.

SMILES: CCCCCOC(=O)Nc1nc(=O)n([C@@H]2O[C@H](C)[C@@H](O)[C@H]2O)cc1F [Capecitabine]
- body weight (in words) [1]: not reduced

SMILES: CO[C@H]1C[C@@H]2CC[C@@H](C)[C@@](O)(O2)C(=O)C(=O)N2CCCC[C@H]2C(=O)O[C@H]([C@H](C)C[C@@H]2CC[C@@H](OCCO)[C@H](OC)C2)CC(=O)[C@H](C)/C=C(\C)[C@@H](O)[C@@H](OC)C(=O)[C@H](C)C[C@H](C)/C=C/C=C/C=C/1C [Everolimus]
- body weight (in words) [2]: slight reduction

SMILES: CC(=O)O[C@H]1C(=O)[C@@]2(C)[C@H]([C@H](OC(=O)c3ccccc3)[C@]3(O)C[C@H](OC(=O)[C@H](O)[C@@H](NC(=O)c4ccccc4)c4ccccc4)C(C)=C1C3(C)C)[C@]1(OC(C)=O)CO[C@@H]1C[C@@H]2O [paclitaxel, Paclitaxel]
- effect on tumor volume (in words) [3]: stable tumour size or reduced the tumor volume; also recorded: decrease of the initial tumor volume

Source: US20160082036A1, “HYDROXYALKYL STARCH FOR THE TREATMENT OF CANCERS BY REDUCTION OF TUMOR GROWTH RATES” (Fresenius Kabi Deutschland GmbH, priority 2012, published 2016)
